Values belong to the molecule of their own block, whether it stands above or below them. Active and inactive are the calls of the source. The calls are words filed in the database; no cut-off is given here.
Tests used:
[1] = Antiproliferative activity against human KPL4 cells; type: functional, cell-based
[2] = Half life in human liver microsomes assessed as glucuronidation; type: ADME, Microsome
[3] = target: Phosphatidylinositol 4,5-bisphosphate 3-kinase catalytic subunit alpha isoform (Homo sapiens, UniProt P42336); experiment: Inhibition of PI3Kalpha
Chain of Phosphatidylinositol 4,5-bisphosphate 3-kinase catalytic subunit alpha isoform (P42336 whole entry, canonical isoform): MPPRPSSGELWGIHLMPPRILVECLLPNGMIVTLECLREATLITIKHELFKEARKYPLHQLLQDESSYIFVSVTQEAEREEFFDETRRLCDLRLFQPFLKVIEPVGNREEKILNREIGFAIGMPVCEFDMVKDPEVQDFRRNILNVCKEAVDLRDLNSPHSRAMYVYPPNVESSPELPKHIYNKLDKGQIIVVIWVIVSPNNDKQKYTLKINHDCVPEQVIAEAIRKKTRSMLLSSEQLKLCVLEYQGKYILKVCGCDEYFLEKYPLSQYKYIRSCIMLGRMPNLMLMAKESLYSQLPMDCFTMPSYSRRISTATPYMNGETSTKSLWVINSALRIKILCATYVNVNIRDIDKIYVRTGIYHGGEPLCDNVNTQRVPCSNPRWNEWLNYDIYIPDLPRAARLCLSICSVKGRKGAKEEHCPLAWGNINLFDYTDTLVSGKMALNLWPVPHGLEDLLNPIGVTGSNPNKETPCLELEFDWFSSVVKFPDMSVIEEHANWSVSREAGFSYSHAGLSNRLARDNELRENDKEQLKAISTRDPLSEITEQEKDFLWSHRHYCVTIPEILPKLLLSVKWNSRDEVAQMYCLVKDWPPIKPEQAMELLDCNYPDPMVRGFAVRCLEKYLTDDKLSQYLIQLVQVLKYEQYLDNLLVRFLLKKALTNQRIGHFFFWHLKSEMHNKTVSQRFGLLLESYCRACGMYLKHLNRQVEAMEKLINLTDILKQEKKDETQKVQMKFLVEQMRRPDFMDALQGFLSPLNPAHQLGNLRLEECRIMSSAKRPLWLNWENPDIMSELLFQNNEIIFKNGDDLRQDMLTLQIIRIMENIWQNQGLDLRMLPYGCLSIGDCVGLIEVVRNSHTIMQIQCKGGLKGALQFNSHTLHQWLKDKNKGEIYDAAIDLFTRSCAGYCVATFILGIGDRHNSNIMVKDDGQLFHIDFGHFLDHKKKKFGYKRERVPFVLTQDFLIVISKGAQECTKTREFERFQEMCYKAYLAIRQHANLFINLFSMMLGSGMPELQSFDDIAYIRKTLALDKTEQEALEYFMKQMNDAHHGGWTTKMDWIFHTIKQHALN

[4] = Oral bioavailability in mouse; type: ADME, organism-based; settings: in vivo
[5] = Half life in human liver microsomes; type: ADME, Microsome
[6] = test system: PC-3; experiment: In vivo antitumor activity against human PC3 cells in xenograft model assessed as inhibition of tumor growth at 100 mg/kg, po qd for 11 days relative to control; type: functional; settings: PC-3, 264 h
[7] = target: Phosphatidylinositol 4-phosphate 3-kinase C2 domain-containing subunit beta (Homo sapiens, UniProt O00750); experiment: Inhibition of PI3KC2beta
Chain of Phosphatidylinositol 4-phosphate 3-kinase C2 domain-containing subunit beta (O00750 whole entry, the tested form may be a part): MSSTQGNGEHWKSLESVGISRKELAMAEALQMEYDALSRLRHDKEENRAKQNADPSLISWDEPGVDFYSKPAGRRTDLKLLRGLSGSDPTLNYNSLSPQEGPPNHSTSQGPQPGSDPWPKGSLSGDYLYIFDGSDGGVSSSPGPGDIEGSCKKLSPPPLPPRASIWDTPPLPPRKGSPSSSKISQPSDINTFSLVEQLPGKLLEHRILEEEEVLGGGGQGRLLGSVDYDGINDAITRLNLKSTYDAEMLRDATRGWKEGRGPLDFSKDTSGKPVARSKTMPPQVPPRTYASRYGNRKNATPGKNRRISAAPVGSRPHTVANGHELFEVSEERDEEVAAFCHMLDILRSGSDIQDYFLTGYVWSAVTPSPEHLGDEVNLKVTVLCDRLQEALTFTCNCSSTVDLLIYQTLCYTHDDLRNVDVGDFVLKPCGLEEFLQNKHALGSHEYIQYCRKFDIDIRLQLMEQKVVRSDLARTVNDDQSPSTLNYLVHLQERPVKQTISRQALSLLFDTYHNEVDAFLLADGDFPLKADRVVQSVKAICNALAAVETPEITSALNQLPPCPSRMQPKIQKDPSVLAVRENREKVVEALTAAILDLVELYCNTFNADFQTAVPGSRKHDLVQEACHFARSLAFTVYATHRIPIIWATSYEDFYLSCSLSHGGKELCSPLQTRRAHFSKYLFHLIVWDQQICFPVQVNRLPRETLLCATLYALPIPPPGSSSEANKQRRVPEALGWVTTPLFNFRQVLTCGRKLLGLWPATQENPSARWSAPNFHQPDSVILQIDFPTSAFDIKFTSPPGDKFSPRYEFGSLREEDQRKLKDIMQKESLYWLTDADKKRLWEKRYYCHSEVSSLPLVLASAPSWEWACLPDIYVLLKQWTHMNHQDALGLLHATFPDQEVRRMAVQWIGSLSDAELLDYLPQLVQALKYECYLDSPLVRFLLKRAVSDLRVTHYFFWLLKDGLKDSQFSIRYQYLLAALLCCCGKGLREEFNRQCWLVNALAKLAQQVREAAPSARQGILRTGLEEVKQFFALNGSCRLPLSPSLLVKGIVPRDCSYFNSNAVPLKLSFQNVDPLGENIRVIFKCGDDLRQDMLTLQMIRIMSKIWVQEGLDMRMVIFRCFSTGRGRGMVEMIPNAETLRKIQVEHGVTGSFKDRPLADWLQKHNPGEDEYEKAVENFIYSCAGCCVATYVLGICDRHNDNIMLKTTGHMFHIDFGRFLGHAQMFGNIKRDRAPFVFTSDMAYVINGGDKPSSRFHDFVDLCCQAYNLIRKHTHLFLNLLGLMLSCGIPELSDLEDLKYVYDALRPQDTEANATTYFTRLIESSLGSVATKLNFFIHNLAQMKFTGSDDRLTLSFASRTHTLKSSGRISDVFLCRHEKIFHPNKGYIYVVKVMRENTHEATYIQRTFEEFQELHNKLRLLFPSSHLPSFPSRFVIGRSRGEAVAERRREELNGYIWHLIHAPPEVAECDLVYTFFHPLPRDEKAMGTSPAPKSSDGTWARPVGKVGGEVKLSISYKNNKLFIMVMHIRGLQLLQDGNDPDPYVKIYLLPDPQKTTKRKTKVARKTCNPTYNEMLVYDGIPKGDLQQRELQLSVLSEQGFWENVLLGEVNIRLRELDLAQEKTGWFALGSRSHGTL

[8] = Tmax in dog at 1 mg/kg, po; type: ADME, organism-based, Canis lupus familiaris; design: dose 1 mg/kg, route oral; settings: in vivo
[9] = Oral bioavailability in monkey at 1 mg/kg; type: ADME, organism-based, Macaca mulatta; settings: rhesus monkey, in vivo
[10] = Half life in monkey at 0.25 mg/kg, iv; type: ADME, organism-based, Macaca mulatta; design: dose 0.25 mg/kg, route intravenous; settings: rhesus monkey, in vivo
[11] = test system: PC-3; experiment: In vivo antitumor activity against human PC3 cells in xenograft model assessed as inhibition of tumor growth at 25 mg/kg, po qd for 11 days relative to control; type: functional; settings: PC-3, 264 h
[12] = Half life in mouse at 1 mg/kg, po; type: ADME, organism-based; design: dose 1 mg/kg, route oral; settings: in vivo
[13] = AUC (infinity) in mouse at 1 mg/kg, po; type: ADME, organism-based; design: time infinity, dose 1 mg/kg, route oral; settings: plasma
[14] = Half life in dog at 0.25 mg/kg, iv; type: ADME, organism-based, Canis lupus familiaris; design: dose 0.25 mg/kg, route intravenous; settings: in vivo
[15] = AUC (infinity) in mouse at 2 mg/kg, iv; type: ADME, organism-based; design: time infinity, dose 2 mg/kg, route intravenous; settings: plasma
[16] = AUC (infinity) in rat at 0.5 mg/kg, iv; type: ADME, organism-based; design: dose 0.5 mg/kg, route intravenous, time infinity; settings: plasma
[17] = test system: KPL4; experiment: Antitumor activity against human KPL4 cells expressing PI3Kalpha H1047R mutant xenografted in mouse assessed as tumor regression at 12.5 mg/kg, po for 6 weeks; type: functional, organism-based; design: dose 12.5 mg/kg
[18] = Tmax in monkey at 1 mg/kg, po; type: ADME, organism-based, Macaca mulatta; design: dose 1 mg/kg, route oral; settings: rhesus monkey, in vivo
[19] = Half life in dog at 1 mg/kg, po; type: ADME, organism-based, Canis lupus familiaris; design: dose 1 mg/kg, route oral; settings: in vivo
[20] = AUC (infinity) in monkey at 1 mg/kg, po; type: ADME, organism-based, Macaca mulatta; design: time infinity, dose 1 mg/kg, route oral; settings: rhesus monkey, plasma
[21] = Half life in monkey at 1 mg/kg, po; type: ADME, organism-based, Macaca mulatta; design: dose 1 mg/kg, route oral; settings: rhesus monkey, in vivo
[22] = AUC (infinity) in dog at 1 mg/kg, po; type: ADME, organism-based, Canis lupus familiaris; design: time infinity, dose 1 mg/kg, route oral; settings: plasma
[23] = AUC (infinity) in rat at 1 mg/kg, po; type: ADME, organism-based; design: time infinity, dose 1 mg/kg, route oral; settings: plasma
[24] = Clearance in monkey at 0.25 mg/kg, iv; type: ADME, organism-based, Macaca mulatta; design: dose 0.25 mg/kg, route intravenous; settings: rhesus monkey, in vivo
[25] = Half life in mouse at 2 mg/kg, iv; type: ADME, organism-based; design: dose 2 mg/kg, route intravenous; settings: in vivo
[26] = target: Phosphatidylinositol 4-phosphate 3-kinase C2 domain-containing subunit alpha (Homo sapiens, UniProt O00443); experiment: Inhibition of PI3KC2alpha
Chain of Phosphatidylinositol 4-phosphate 3-kinase C2 domain-containing subunit alpha (O00443 whole entry, the tested form may be a part): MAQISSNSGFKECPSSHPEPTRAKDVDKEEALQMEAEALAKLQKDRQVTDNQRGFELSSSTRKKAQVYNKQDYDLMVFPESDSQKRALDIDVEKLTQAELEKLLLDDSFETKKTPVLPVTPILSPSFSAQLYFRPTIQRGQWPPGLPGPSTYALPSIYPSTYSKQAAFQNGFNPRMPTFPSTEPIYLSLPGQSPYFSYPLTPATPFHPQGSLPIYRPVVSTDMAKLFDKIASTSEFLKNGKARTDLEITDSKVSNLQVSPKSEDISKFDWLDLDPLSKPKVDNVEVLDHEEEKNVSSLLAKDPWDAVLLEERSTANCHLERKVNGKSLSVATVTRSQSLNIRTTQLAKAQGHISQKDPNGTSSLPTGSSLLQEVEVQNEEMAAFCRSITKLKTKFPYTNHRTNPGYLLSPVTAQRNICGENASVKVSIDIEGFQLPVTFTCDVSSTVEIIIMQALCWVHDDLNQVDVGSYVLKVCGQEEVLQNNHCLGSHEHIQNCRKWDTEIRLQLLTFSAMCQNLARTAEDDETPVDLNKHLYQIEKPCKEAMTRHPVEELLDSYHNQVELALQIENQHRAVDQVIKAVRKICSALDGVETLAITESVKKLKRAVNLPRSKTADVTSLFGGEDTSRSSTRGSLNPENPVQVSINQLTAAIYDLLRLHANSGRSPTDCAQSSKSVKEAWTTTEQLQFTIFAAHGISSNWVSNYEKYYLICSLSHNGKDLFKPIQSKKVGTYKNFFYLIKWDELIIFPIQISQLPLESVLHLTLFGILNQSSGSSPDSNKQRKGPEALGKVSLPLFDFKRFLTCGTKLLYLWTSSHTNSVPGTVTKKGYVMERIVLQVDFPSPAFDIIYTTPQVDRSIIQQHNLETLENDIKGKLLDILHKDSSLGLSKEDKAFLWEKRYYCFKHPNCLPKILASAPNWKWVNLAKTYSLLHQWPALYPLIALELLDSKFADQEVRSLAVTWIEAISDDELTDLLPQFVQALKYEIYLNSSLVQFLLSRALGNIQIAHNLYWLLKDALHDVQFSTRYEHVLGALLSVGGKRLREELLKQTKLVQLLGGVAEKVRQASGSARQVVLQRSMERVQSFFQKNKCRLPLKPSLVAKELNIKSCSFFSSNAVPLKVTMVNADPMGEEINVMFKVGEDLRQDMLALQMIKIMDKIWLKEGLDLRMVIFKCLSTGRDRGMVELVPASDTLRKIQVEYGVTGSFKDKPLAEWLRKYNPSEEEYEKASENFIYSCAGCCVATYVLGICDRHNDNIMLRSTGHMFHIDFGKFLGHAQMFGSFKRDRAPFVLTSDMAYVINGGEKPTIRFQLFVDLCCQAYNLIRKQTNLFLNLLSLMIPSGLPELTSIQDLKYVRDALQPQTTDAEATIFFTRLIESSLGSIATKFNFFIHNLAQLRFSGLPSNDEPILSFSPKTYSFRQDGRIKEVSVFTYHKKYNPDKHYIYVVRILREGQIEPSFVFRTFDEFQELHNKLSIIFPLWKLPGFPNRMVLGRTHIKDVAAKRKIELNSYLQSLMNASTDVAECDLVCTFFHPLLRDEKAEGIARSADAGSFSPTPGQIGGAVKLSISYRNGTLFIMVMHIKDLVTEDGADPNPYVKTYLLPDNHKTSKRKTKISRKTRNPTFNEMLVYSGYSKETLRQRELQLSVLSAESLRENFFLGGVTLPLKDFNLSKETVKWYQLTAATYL

[27] = Clearance in dog at 0.25 mg/kg, iv; type: ADME, organism-based, Canis lupus familiaris; design: dose 0.25 mg/kg, route intravenous; settings: in vivo
[28] = Oral bioavailability in rat at 1 mg/kg; type: ADME, organism-based; settings: in vivo
[29] = Tmax in mouse at 1 mg/kg, po; type: ADME, organism-based; design: dose 1 mg/kg, route oral; settings: in vivo
[30] = AUC (infinity) in dog at 0.25 mg/kg, iv; type: ADME, organism-based, Canis lupus familiaris; design: time infinity, dose 0.25 mg/kg, route intravenous; settings: plasma
[31] = test system: KPL4; experiment: Antitumor activity against human KPL4 cells expressing PI3Kalpha H1047R mutant xenografted in mouse assessed as tumor regression at 12.5 mg/kg, po administered intermittent dosing schedule 5 days on/2 days off; type: functional, organism-based; design: dose 12.5 mg/kg
[32] = Inhibition of protein kinase
[33] = Half life in rat at 0.5 mg/kg, iv; type: ADME, organism-based; design: dose 0.5 mg/kg, route intravenous; settings: in vivo
[34] = test system: KPL4; experiment: Antitumor activity against human KPL4 cells expressing PI3Kalpha H1047R mutant xenografted in mouse assessed as tumor regression at 12.5 mg/kg, po administered intermittent dosing schedule qd for 2 weeks on/1 week off; type: functional, organism-based; design: dose 12.5 mg/kg
[35] = target: Serine/threonine-protein kinase mTOR (Homo sapiens, UniProt P42345); experiment: Inhibition of mTOR
[36] = Oral bioavailability in dog at 1 mg/kg; type: ADME, organism-based, Canis lupus familiaris; settings: in vivo
[37] = Half life in rat at 1 mg/kg, po; type: ADME, organism-based; design: dose 1 mg/kg, route oral; settings: in vivo
[38] = Tmax in rat at 1 mg/kg, po; type: ADME, organism-based; design: dose 1 mg/kg, route oral; settings: in vivo
[39] = target: Phosphatidylinositol 3-kinase catalytic subunit type 3 (Homo sapiens, UniProt Q8NEB9); experiment: Inhibition of Vps34
[40] = Clearance in rat at 0.5 mg/kg, iv; type: ADME, organism-based; design: dose 0.5 mg/kg, route intravenous; settings: in vivo
[41] = Oral bioavailability in mouse at 1 mg/kg; type: ADME, organism-based; settings: in vivo
[42] = Clearance in mouse at 2 mg/kg, iv; type: ADME, organism-based; design: dose 2 mg/kg, route intravenous; settings: in vivo

half-life [2]: > 1 h
IC50 [3]: 33 nM
bioavailability [4]: 41%
half-life [5]: 1.18 h
Structure (SMILES): Nc1ncc(-c2nc(N3CCOCC3)nc3c2CCN3c2cccnc2)cn1
IC50 [1]: 15 nM
inhibition in vivo at 100 mg/kg [6]: 112%

IC50 [3]: 41 nM
Structure (SMILES): Oc1cccc(-c2nc(N3CCOCC3)nc3c2CCN3c2cccnc2)c1

IC50 [7]: 5300 nM
Tmax [8]: 4.5 h
bioavailability [9]: 78.4%
half-life [10]: 3.2 h
half-life [12]: 3.8 h
AUC(0-inf) [13]: 978 ng·h/mL
half-life [14]: 1.6 h
AUC(0-inf) [15]: 1930 ng·h/mL
AUC(0-inf) [16]: 1350 ng·h/mL
Tmax [18]: 4 h
half-life [19]: 3.3 h
AUC(0-inf) [20]: 2170 ng·h/mL
half-life [21]: 6.7 h
AUC(0-inf) [22]: 1430 ng·h/mL
AUC(0-inf) [23]: 1790 ng·h/mL
clearance [24]: 6.2 mL/min/kg
half-life [25]: 1.7 h
IC50 [26]: > 10000 nM
clearance [27]: 6.4 mL/min/kg
bioavailability [28]: 66.2%
Tmax [29]: 0.25 h
AUC(0-inf) [30]: 660 ng·h/mL
IC50 [32]: > 10000 nM
bioavailability [4]: 101%
half-life [33]: 2.6 h
IC50 [35]: 1600 nM
bioavailability [36]: 54.2%
half-life [37]: 3.5 h
Tmax [38]: 0.8 h
IC50 [39]: > 10000 nM
clearance [40]: 6.3 mL/min/kg
half-life [5]: > 6 h
bioavailability [41]: 101%
clearance [42]: 17.5 mL/min/kg
Structure (SMILES): CS(=O)(=O)N1CCc2c(-c3cnc(N)nc3)nc(N3CCOCC3)nc21 [IZORLISIB]
inhibition in vivo at 25 mg/kg [11]: 101%
Activity [17]: Active
Activity [31]: Active
Activity [34]: Active

Continued, molecule first:

Structure (SMILES): Oc1cccc(-c2nc(N3CCOCC3)nc3c2CCN3c2ccncc2)c1
IC50 [1]: 450 nM
half-life [2]: 0.183 h
IC50 [3]: 8.6 nM
bioavailability [4]: 1.6%
half-life [5]: 0.35 h

Structure (SMILES): Oc1cccc(-c2nc(N3CCOCC3)nc3c2CCN3c2ccc3nc[nH]c3c2)c1
IC50 [3]: 77 nM

Source: ChEMBL document CHEMBL1681712, “Discovery and biological activity of a novel class I PI3K inhibitor, CH5132799” (Bioorg Med Chem Lett, 2011)
